{"source": "patent US8192962B2", "about": "“Processes for detecting toxic substances” (Daikin Industries, Ltd., priority 2001, dated 2012)", "test_system": "Energy system protein genes", "assay": "DNA chip mRNA expression in yeast, energy system protein genes (Table 4)", "type": "cell-based, Saccharomyces cerevisiae S288C", "method": "Yeast (Saccharomyces cerevisiae S288C (α SUC2mal mel gap2 CUP1)) were incubated at 25° C. on YPD medium (yeast extract 1%, polypepton 2%, glucose 2%). One of toxic chemical substances was added to the cells at logarithmic growth phase, and the cells were further incubated for two hours. Cells were cultured without any chemical substance in the same condition, and were used as control. Concentrations of the chemical substances were defined to inhibit the growth of the yeast but not lead to death.\nAfter completion of the incubation, the culture was centrifuged to collect the cells. To the cells, sodium acetate buffer (50 mM sodium acetate, 10 mM EDTA, 1% SDS) was added, and the mixture was shaken at 65° C. for five minutes, followed by returning to room temperature, and obtaining the supernatant, of which the procedures were repeated two times. To the supernatant, ½ amount of a solution of phenol/chloroform was added, and the mixture was centrifuged to give a supernatant, which was added with an equal amount of chloroform, and the mixture was centrifuged to give a supernatant. To the supernatant, an equal amount of isopropanol containing 0.3 M sodium acetate was added, and the mixture was allowed to stand at room temperature for 30 minutes, after which the mixture was centrifuged to give a sediment of the whole RNAs. Seventy % ethanol was added to the sediment, and the mixture was again centrifuged to give a sediment, which was then dried and dissolved in water. mRNA was isolated from the whole RNAs as followings. In view of the fact that a poly A chain is attached to the 3′ terminus of mRNA, a polynucleotide having a poly T structure which was immobilized on the surface of latex beads was used to trap the mRNA, and then the mRNA was washed and eluted with spine column (Oligotex-dT30<Super>mRNA Purification Kit, Takara). Reverse transcription of the mRNA was conducted with a reverse transcriptase (Super Script II Reverse Transcriptase; catalogue No. 18064-014, GibcoBRL) using fluorescence-labeled nucleotides to give cDNAs that were introduced with Cy3-dUTP or Cy5-dUTP during the reverse transcription.\nThe labeled cDNAs were dissolved in TE buffer (10mM Tris-HCl/1 mM EDTA, pH8.0), and the solution was dropped on the DNA chip containing the whole genes of yeast (DNA Chip Research Inc. Japan) so that the cDNAs were hybridized on the DNA chip at 65° C. for over 12 hours. The fluoresces intensity of the DNA chip was read with a scanner, and the ratio relative to the fluorescence intensity resulting from the absence of chemical substance was estimated as the following, which is shown in Tables 1 to 9: […]"}
{"compound": "CCCCCCCCCCCCc1ccc(S(=O)(=O)[O-])cc1.[Na+]", "note": "[(17), sodium dodecylbenzosulfonate]", "values": [{"measurement": "The level of expressed mRNA in the presence of chemical substance/The level of expressed mRNA in the absence of chemical substance", "setting": "yeast gene YAL060W", "value": 1.1}, {"measurement": "The level of expressed mRNA in the presence of chemical substance/The level of expressed mRNA in the absence of chemical substance", "setting": "yeast gene YBL058W, cells incubated two hours with the chemical substance", "value": 1.0}, {"measurement": "The level of expressed mRNA in the presence of chemical substance/The level of expressed mRNA in the absence of chemical substance", "setting": "yeast gene YBL099W, cells incubated two hours with the chemical substance", "value": 0.7}, {"measurement": "The level of expressed mRNA in the presence of chemical substance/The level of expressed mRNA in the absence of chemical substance", "setting": "yeast gene YBR001C, cells incubated two hours with the chemical substance", "value": 1.0}, {"measurement": "The level of expressed mRNA in the presence of chemical substance/The level of expressed mRNA in the absence of chemical substance", "setting": "yeast gene YBR185C, cells incubated two hours with the chemical substance", "value": 0.8}, {"measurement": "The level of expressed mRNA in the presence of chemical substance/The level of expressed mRNA in the absence of chemical substance", "setting": "yeast gene YBR221C, cells incubated two hours with the chemical substance", "value": 0.9}, {"measurement": "The level of expressed mRNA in the presence of chemical substance/The level of expressed mRNA in the absence of chemical substance", "setting": "yeast gene YCL040W", "value": 1.4}, {"measurement": "The level of expressed mRNA in the presence of chemical substance/The level of expressed mRNA in the absence of chemical substance", "setting": "yeast gene YCR012W", "value": 0.8}, {"measurement": "The level of expressed mRNA in the presence of chemical substance/The level of expressed mRNA in the absence of chemical substance", "setting": "yeast gene YCR046C, cells incubated two hours with the chemical substance", "value": 1.3}, {"measurement": "The level of expressed mRNA in the presence of chemical substance/The level of expressed mRNA in the absence of chemical substance", "setting": "yeast gene YCR105W, cells incubated two hours with the chemical substance", "value": 1.3}, {"measurement": "The level of expressed mRNA in the presence of chemical substance/The level of expressed mRNA in the absence of chemical substance", "setting": "yeast gene YDL021W", "value": 1.9}, {"measurement": "The level of expressed mRNA in the presence of chemical substance/The level of expressed mRNA in the absence of chemical substance", "setting": "yeast gene YDL067C, cells incubated two hours with the chemical substance", "value": 1.2}, {"measurement": "The level of expressed mRNA in the presence of chemical substance/The level of expressed mRNA in the absence of chemical substance", "setting": "yeast gene YDL078C, cells incubated two hours with the chemical substance", "value": 1.1}, {"measurement": "The level of expressed mRNA in the presence of chemical substance/The level of expressed mRNA in the absence of chemical substance", "setting": "yeast gene YDL107W, cells incubated two hours with the chemical substance", "value": 1.1}, {"measurement": "The level of expressed mRNA in the presence of chemical substance/The level of expressed mRNA in the absence of chemical substance", "setting": "yeast gene YDL174C", "value": 2.2}, {"measurement": "The level of expressed mRNA in the presence of chemical substance/The level of expressed mRNA in the absence of chemical substance", "setting": "yeast gene YDL181W, cells incubated two hours with the chemical substance", "value": 1.5}, {"measurement": "The level of expressed mRNA in the presence of chemical substance/The level of expressed mRNA in the absence of chemical substance", "setting": "yeast gene YDR001C", "value": 1.1}, {"measurement": "The level of expressed mRNA in the presence of chemical substance/The level of expressed mRNA in the absence of chemical substance", "setting": "yeast gene YDR050C, cells incubated two hours with the chemical substance", "value": 1.1}, {"measurement": "The level of expressed mRNA in the presence of chemical substance/The level of expressed mRNA in the absence of chemical substance", "setting": "yeast gene YDR079W, cells incubated two hours with the chemical substance", "value": 1.1}, {"measurement": "The level of expressed mRNA in the presence of chemical substance/The level of expressed mRNA in the absence of chemical substance", "setting": "yeast gene YDR178W, cells incubated two hours with the chemical substance", "value": 1.2}, {"measurement": "The level of expressed mRNA in the presence of chemical substance/The level of expressed mRNA in the absence of chemical substance", "setting": "yeast gene YDR231C", "value": 1.2}, {"measurement": "The level of expressed mRNA in the presence of chemical substance/The level of expressed mRNA in the absence of chemical substance", "setting": "yeast gene YDR298C, cells incubated two hours with the chemical substance", "value": 1.1}, {"measurement": "The level of expressed mRNA in the presence of chemical substance/The level of expressed mRNA in the absence of chemical substance", "setting": "yeast gene YDR377W, cells incubated two hours with the chemical substance", "value": 1.2}, {"measurement": "The level of expressed mRNA in the presence of chemical substance/The level of expressed mRNA in the absence of chemical substance", "setting": "yeast gene YDR529C, cells incubated two hours with the chemical substance", "value": 1.0}, {"measurement": "The level of expressed mRNA in the presence of chemical substance/The level of expressed mRNA in the absence of chemical substance", "setting": "yeast gene YEL024W, cells incubated two hours with the chemical substance", "value": 1.1}, {"measurement": "The level of expressed mRNA in the presence of chemical substance/The level of expressed mRNA in the absence of chemical substance", "setting": "yeast gene YEL039C, cells incubated two hours with the chemical substance", "value": 0.7}, {"measurement": "The level of expressed mRNA in the presence of chemical substance/The level of expressed mRNA in the absence of chemical substance", "setting": "yeast gene YER178W", "value": 1.1}, {"measurement": "The level of expressed mRNA in the presence of chemical substance/The level of expressed mRNA in the absence of chemical substance", "setting": "yeast gene YFL057C", "value": 1.6}, {"measurement": "The level of expressed mRNA in the presence of chemical substance/The level of expressed mRNA in the absence of chemical substance", "setting": "yeast gene YFR053C", "value": 1.4}, {"measurement": "The level of expressed mRNA in the presence of chemical substance/The level of expressed mRNA in the absence of chemical substance", "setting": "yeast gene YGL018C, cells incubated two hours with the chemical substance", "value": 0.8}, {"measurement": "The level of expressed mRNA in the presence of chemical substance/The level of expressed mRNA in the absence of chemical substance", "setting": "yeast gene YGL062W", "value": 1.1}, {"measurement": "The level of expressed mRNA in the presence of chemical substance/The level of expressed mRNA in the absence of chemical substance", "setting": "yeast gene YGL187C, cells incubated two hours with the chemical substance", "value": 0.9}, {"measurement": "The level of expressed mRNA in the presence of chemical substance/The level of expressed mRNA in the absence of chemical substance", "setting": "yeast gene YGL191W, cells incubated two hours with the chemical substance", "value": 1.2}, {"measurement": "The level of expressed mRNA in the presence of chemical substance/The level of expressed mRNA in the absence of chemical substance", "setting": "yeast gene YGL205W, cells incubated two hours with the chemical substance", "value": 3.9}, {"measurement": "The level of expressed mRNA in the presence of chemical substance/The level of expressed mRNA in the absence of chemical substance", "setting": "yeast gene YGL256W, cells incubated two hours with the chemical substance", "value": 0.7}, {"measurement": "The level of expressed mRNA in the presence of chemical substance/The level of expressed mRNA in the absence of chemical substance", "setting": "yeast gene YGR043C", "value": 1.6}, {"measurement": "The level of expressed mRNA in the presence of chemical substance/The level of expressed mRNA in the absence of chemical substance", "setting": "yeast gene YGR062C, cells incubated two hours with the chemical substance, 25° C., YPD medium", "value": 0.9}, {"measurement": "The level of expressed mRNA in the presence of chemical substance/The level of expressed mRNA in the absence of chemical substance", "setting": "yeast gene YGR087C, cells incubated two hours with the chemical substance", "value": 1.0}, {"measurement": "The level of expressed mRNA in the presence of chemical substance/The level of expressed mRNA in the absence of chemical substance", "setting": "yeast gene YGR174C, cells incubated two hours with the chemical substance", "value": 1.3}, {"measurement": "The level of expressed mRNA in the presence of chemical substance/The level of expressed mRNA in the absence of chemical substance", "setting": "yeast gene YGR192C", "value": 1.1}, {"measurement": "The level of expressed mRNA in the presence of chemical substance/The level of expressed mRNA in the absence of chemical substance", "setting": "yeast gene YGR244C", "value": 1.9}, {"measurement": "The level of expressed mRNA in the presence of chemical substance/The level of expressed mRNA in the absence of chemical substance", "setting": "yeast gene YGR254W", "value": 1.3}, {"measurement": "The level of expressed mRNA in the presence of chemical substance/The level of expressed mRNA in the absence of chemical substance", "setting": "yeast gene YHR179W", "value": 1.9}, {"measurement": "The level of expressed mRNA in the presence of chemical substance/The level of expressed mRNA in the absence of chemical substance", "setting": "yeast gene YIL160C", "value": 2.4}, {"measurement": "The level of expressed mRNA in the presence of chemical substance/The level of expressed mRNA in the absence of chemical substance", "setting": "yeast gene YIR031C, cells incubated two hours with the chemical substance", "value": 0.9}, {"measurement": "The level of expressed mRNA in the presence of chemical substance/The level of expressed mRNA in the absence of chemical substance", "setting": "yeast gene YJL052W", "value": 1.2}, {"measurement": "The level of expressed mRNA in the presence of chemical substance/The level of expressed mRNA in the absence of chemical substance", "setting": "yeast gene YJL121C, cells incubated two hours with the chemical substance", "value": 1.1}, {"measurement": "The level of expressed mRNA in the presence of chemical substance/The level of expressed mRNA in the absence of chemical substance", "setting": "yeast gene YJL166W, cells incubated two hours with the chemical substance", "value": 1.7}, {"measurement": "The level of expressed mRNA in the presence of chemical substance/The level of expressed mRNA in the absence of chemical substance", "setting": "yeast gene YJL216C, cells incubated two hours with the chemical substance", "value": 1.2}, {"measurement": "The level of expressed mRNA in the presence of chemical substance/The level of expressed mRNA in the absence of chemical substance", "setting": "yeast gene YJR009C", "value": 1.1}]}
